Data published in the NIST ThermoML archive (doi:10.1021/je100175j).
Numbers after ± are expanded uncertainties.

Assays:
[1] = Molar enthalpy of transition or fusion; conditions: Crystal; DSC

NC(=O)c1ccccc1 [benzamide]
Conditions	vapor or sublimation pressure [kPa]
324.11 K, Crystal, Calculated from knudsen effusion weight loss	0.000108 ± 2e-05
326.19 K, Crystal, Calculated from knudsen effusion weight loss	0.000136 ± 2.1e-05
328.19 K, Crystal, Calculated from knudsen effusion weight loss	0.000169 ± 2.1e-05
330.1 K, Crystal, Calculated from knudsen effusion weight loss	0.000215 ± 2.1e-05
332.16 K, Crystal, Calculated from knudsen effusion weight loss	0.000267 ± 2.2e-05
334.18 K, Crystal, Calculated from knudsen effusion weight loss	0.000332 ± 2.3e-05
336.1 K, Crystal, Calculated from knudsen effusion weight loss	0.000415 ± 2.5e-05
338.17 K, Crystal, Calculated from knudsen effusion weight loss	0.000513 ± 2.7e-05
340.19 K, Crystal, Calculated from knudsen effusion weight loss	0.000634 ± 3e-05
342.11 K, Crystal, Calculated from knudsen effusion weight loss	0.000794 ± 3.5e-05
344.18 K, Crystal, Calculated from knudsen effusion weight loss	0.000981 ± 4e-05
344.8 K, Crystal, Closed cell (Static) method	0.0011 ± 0.00012
346.18 K, Crystal, Calculated from knudsen effusion weight loss	0.001205 ± 9.7e-05
346.78 K, Crystal, Closed cell (Static) method	0.00135 ± 0.00013
348.77 K, Crystal, Closed cell (Static) method	0.00166 ± 0.00013
350.76 K, Crystal, Closed cell (Static) method	0.00204 ± 0.00014
352.74 K, Crystal, Closed cell (Static) method	0.00247 ± 0.00015
354.72 K, Crystal, Closed cell (Static) method	0.00301 ± 0.00017
356.71 K, Crystal, Closed cell (Static) method	0.00366 ± 0.00019
358.69 K, Crystal, Closed cell (Static) method	0.00438 ± 0.00021
360.68 K, Crystal, Closed cell (Static) method	0.00534 ± 0.00024
362.68 K, Crystal, Closed cell (Static) method	0.00631 ± 0.00028
364.64 K, Crystal, Closed cell (Static) method	0.00769 ± 0.00033
366.62 K, Crystal, Closed cell (Static) method	0.00906 ± 0.00038
368.6 K, Crystal, Closed cell (Static) method	0.01095 ± 0.00045
370.59 K, Crystal, Closed cell (Static) method	0.01299 ± 0.00052
372.59 K, Crystal, Closed cell (Static) method	0.01556 ± 0.00056
374.55 K, Crystal, Closed cell (Static) method	0.01829 ± 0.0006
376.53 K, Crystal, Closed cell (Static) method	0.02177 ± 0.00065
378.52 K, Crystal, Closed cell (Static) method	0.02586 ± 0.00072
380.43 K, Liquid, Closed cell (Static) method	0.04263 ± 0.00097
380.48 K, Crystal, Closed cell (Static) method	0.03068 ± 0.00079
382.43 K, Liquid, Closed cell (Static) method	0.0481 ± 0.0011
382.47 K, Crystal, Closed cell (Static) method	0.03596 ± 0.00087
384.38 K, Liquid, Closed cell (Static) method	0.05455 ± 0.0012
384.44 K, Crystal, Closed cell (Static) method	0.04227 ± 0.00097
386.42 K, Crystal, Closed cell (Static) method	0.04949 ± 0.0011
386.56 K, Liquid, Closed cell (Static) method	0.06285 ± 0.0013
388.3 K, Liquid, Closed cell (Static) method	0.0702 ± 0.0014
388.4 K, Crystal, Closed cell (Static) method	0.058 ± 0.0012
390.38 K, Crystal, Closed cell (Static) method	0.06796 ± 0.0014
390.51 K, Liquid, Closed cell (Static) method	0.08051 ± 0.0016
392.28 K, Liquid, Closed cell (Static) method	0.0897 ± 0.0017
392.32 K, Crystal, Closed cell (Static) method	0.07856 ± 0.0015
394.32 K, Crystal, Closed cell (Static) method	0.09224 ± 0.0017
394.51 K, Liquid, Closed cell (Static) method	0.102 ± 0.0019
396.37 K, Liquid, Closed cell (Static) method	0.1144 ± 0.0021
398.34 K, Liquid, Closed cell (Static) method	0.129 ± 0.0023
400.4 K, Liquid, Closed cell (Static) method	0.1453 ± 0.0021
402.25 K, Liquid, Closed cell (Static) method	0.1597 ± 0.0023
404.42 K, Liquid, Closed cell (Static) method	0.1805 ± 0.0024
406.32 K, Liquid, Closed cell (Static) method	0.1992 ± 0.0026
408.4 K, Liquid, Closed cell (Static) method	0.2257 ± 0.0028
410.17 K, Liquid, Closed cell (Static) method	0.2479 ± 0.003
412.21 K, Liquid, Closed cell (Static) method	0.279 ± 0.0032
414.31 K, Liquid, Closed cell (Static) method	0.3088 ± 0.0035
416.23 K, Liquid, Closed cell (Static) method	0.3462 ± 0.0038
418.37 K, Liquid, Closed cell (Static) method	0.3819 ± 0.0041
420.28 K, Liquid, Closed cell (Static) method	0.4246 ± 0.0045
422.2 K, Liquid, Closed cell (Static) method	0.4667 ± 0.0048
424.23 K, Liquid, Closed cell (Static) method	0.5208 ± 0.0053
426.18 K, Liquid, Closed cell (Static) method	0.5676 ± 0.0057
428.17 K, Liquid, Closed cell (Static) method	0.6262 ± 0.0062
430.15 K, Liquid, Closed cell (Static) method	0.6836 ± 0.0067
432.17 K, Liquid, Closed cell (Static) method	0.7596 ± 0.0074
434.17 K, Liquid, Closed cell (Static) method	0.8264 ± 0.008
436.2 K, Liquid, Closed cell (Static) method	0.922 ± 0.0088
438.2 K, Liquid, Closed cell (Static) method	1.002 ± 0.009

Conditions	Triple point temperature [K]
Crystal, DTA	401.34 ± 0.49

Conditions	Molar enthalpy of transition or fusion [kcal/mol]
[1]	5.54 ± 0.127
